Reference: ChEMBL document CHEMBL1201862, “PubChem BioAssay data set” (2004)
Activity calls are given as the source filed them.

Assays:
[1] = inhibitors of intracellular T. cruzi replication, confirmation, NIH3T3 host cells, beta-gal luminescence (AID 2044); type: functional, cell-based;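 further: intracellular parasites grown in NIH/3T3 mouse fibroblasts as host cells; luminescent beta-galactosidase reporter signal from transgenic T. cruzi replicating inside host cells; inhibitors lower the luminescence signal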
[2] = cytotoxicity toward NIH3T3 fibroblasts, dose response, counter-screen, cell-based, ATP luminescence, mouse fibroblasts (AID 2010); type: functional;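 further: cells exposed to compound for about 90 hours before reading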
Ephrin type-A receptor 4 = Ephrin type-A receptor 4 (Mus musculus, UniProt Q03137); assay: inhibitors of EphA4 binding to KYL peptide, primary screen, biochemical, colorimetric, mouse EphA4 (AID 689); type: functional
Sequence of Ephrin type-A receptor 4 (Q03137 whole entry): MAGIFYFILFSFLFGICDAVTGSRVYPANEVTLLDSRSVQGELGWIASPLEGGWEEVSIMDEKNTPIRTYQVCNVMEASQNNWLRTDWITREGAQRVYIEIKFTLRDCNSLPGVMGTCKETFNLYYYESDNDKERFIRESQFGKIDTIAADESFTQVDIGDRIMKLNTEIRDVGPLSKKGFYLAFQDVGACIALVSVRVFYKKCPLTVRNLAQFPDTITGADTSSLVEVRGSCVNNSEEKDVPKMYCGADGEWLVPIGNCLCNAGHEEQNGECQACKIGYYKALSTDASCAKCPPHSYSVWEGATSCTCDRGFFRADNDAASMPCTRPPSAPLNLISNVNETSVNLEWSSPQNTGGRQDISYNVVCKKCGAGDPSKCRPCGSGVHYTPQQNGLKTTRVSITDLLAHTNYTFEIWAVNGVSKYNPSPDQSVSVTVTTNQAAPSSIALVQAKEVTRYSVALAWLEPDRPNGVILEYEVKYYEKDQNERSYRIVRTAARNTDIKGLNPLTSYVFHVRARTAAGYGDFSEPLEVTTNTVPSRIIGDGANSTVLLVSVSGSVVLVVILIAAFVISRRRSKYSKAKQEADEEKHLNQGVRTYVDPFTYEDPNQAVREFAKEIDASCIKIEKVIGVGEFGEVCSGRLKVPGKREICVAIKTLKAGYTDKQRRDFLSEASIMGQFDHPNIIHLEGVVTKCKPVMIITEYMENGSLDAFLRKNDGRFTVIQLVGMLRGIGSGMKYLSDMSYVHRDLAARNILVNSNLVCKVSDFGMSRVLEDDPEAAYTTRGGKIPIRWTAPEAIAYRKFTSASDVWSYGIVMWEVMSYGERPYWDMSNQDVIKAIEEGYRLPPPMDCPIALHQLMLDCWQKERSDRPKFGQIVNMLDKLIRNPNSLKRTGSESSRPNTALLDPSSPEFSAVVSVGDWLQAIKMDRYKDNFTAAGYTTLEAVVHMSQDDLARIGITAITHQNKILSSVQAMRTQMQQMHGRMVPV

Cytochrome P450 2C19 = Cytochrome P450 2C19 (Homo sapiens, UniProt P33261); assay: Cytochrome panel assay with activity outcomes. Panel member name: p450-cyp2c19 Compounds with AC50 equal or less than 10 uM are considered active; type: functional; conditions: read-out: AC50
Sequence of Cytochrome P450 2C19 (P33261 whole entry): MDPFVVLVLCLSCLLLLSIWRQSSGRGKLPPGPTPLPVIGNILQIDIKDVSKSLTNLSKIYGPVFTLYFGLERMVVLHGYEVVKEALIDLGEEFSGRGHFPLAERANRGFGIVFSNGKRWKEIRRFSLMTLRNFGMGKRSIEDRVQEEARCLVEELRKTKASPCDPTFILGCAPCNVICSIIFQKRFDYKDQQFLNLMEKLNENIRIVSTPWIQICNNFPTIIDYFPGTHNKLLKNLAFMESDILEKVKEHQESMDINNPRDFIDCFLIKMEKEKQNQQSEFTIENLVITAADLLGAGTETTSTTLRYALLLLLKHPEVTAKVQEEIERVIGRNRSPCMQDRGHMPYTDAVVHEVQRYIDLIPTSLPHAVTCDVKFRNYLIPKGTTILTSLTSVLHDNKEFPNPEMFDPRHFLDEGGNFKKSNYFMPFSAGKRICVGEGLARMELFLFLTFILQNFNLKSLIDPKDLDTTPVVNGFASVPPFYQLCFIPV

Cytochrome P450 3A4 = Cytochrome P450 3A4 (Homo sapiens, UniProt P08684);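 further: CYP3A4 tested as one member of a cytochrome P450 panel screen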
Sequence of Cytochrome P450 3A4 (P08684 whole entry): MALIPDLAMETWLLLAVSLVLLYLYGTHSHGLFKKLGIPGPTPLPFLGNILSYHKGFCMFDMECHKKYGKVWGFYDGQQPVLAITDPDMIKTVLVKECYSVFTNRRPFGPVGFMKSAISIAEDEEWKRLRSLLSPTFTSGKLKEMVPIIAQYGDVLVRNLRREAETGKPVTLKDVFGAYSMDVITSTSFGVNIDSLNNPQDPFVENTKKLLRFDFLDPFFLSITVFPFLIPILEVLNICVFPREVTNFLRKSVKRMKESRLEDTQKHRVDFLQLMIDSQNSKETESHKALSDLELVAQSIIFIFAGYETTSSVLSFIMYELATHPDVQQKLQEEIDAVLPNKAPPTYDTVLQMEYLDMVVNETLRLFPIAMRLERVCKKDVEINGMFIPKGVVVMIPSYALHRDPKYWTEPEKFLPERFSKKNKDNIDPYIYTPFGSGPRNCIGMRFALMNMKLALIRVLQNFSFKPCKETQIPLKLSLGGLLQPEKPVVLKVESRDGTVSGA

Cytochrome P450 2C9 = Cytochrome P450 2C9 (Homo sapiens, UniProt P11712)
Sequence of Cytochrome P450 2C9 (P11712 whole entry): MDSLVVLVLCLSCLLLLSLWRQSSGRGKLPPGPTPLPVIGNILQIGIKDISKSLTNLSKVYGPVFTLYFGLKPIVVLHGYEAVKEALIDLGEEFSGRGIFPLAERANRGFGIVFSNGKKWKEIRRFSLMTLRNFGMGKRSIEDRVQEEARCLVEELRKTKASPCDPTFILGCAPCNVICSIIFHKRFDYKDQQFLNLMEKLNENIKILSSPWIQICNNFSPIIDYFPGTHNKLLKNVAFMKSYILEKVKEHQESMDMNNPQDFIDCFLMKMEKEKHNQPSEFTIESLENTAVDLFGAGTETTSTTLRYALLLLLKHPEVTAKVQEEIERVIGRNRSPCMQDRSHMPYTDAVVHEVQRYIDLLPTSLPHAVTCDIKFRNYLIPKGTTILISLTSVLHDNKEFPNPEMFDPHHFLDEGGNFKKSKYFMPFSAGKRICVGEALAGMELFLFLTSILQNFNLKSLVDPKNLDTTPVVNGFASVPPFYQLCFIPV

[3] = NIH-3T3 fibroblast cytotoxicity, dose response, cytotoxicity control, cell-based, fluorescence, Alamar Blue, secondary assay (AID 2327); type: functional;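 further: NIH-3T3 mouse fibroblasts cultured with fluconazole at 8 µg/mL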
[4] = inhibitors of firefly luciferase expression or activity, dose response, H4 neuroglioma cells, luminescence (AID 1990); type: functional, cell-based
[5] = Luminescence Cell-Based Dose Response HTS to Identify Inhibitors of 5'UTR Stem-Loop Driven Prion Protein mRNA Translation in H4 Neuroglioblastoma Cells. [Related pubchem assays: 1827 (Project Summary), 1813 (Primary HTS)]; type: functional
[6] = inhibitors of SNCA 5'UTR-driven reporter translation, confirmation, H4 neuroglioma cells, luminescence (AID 1988); type: functional, cell-based
[7] = C. albicans growth with fluconazole, confirmation, fluorescence, retest (AID 2467); type: functional, cell-based
Estrogen receptor = molecular target: T1, Estrogen receptor (Homo sapiens, UniProt P03372);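 further: potency for inhibiting coactivator peptide recruitment to the receptor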
T1 sequence (P03372 whole entry): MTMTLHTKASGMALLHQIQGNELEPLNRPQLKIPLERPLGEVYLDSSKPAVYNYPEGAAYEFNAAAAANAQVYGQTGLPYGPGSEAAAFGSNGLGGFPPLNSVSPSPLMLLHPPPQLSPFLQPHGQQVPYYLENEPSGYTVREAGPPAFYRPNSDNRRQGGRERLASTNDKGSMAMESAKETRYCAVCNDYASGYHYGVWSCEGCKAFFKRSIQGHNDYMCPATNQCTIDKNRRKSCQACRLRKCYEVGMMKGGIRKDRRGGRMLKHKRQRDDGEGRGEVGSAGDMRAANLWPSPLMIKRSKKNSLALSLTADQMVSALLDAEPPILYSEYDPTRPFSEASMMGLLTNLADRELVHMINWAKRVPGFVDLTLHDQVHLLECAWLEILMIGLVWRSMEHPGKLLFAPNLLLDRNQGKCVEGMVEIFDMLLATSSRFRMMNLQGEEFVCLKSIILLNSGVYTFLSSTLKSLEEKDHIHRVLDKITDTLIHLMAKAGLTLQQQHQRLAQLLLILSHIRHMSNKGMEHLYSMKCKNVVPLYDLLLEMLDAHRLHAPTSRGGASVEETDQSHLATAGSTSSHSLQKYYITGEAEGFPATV

[8] = molecular target: Calpain-2 catalytic subunit (Sus scrofa, UniProt P43367); assay: pig calpain II inhibitor potency, dose response, biochemical, fluorogenic peptide substrate (AID 1420); type: functional
Sequence of Calpain-2 catalytic subunit (P43367 whole entry): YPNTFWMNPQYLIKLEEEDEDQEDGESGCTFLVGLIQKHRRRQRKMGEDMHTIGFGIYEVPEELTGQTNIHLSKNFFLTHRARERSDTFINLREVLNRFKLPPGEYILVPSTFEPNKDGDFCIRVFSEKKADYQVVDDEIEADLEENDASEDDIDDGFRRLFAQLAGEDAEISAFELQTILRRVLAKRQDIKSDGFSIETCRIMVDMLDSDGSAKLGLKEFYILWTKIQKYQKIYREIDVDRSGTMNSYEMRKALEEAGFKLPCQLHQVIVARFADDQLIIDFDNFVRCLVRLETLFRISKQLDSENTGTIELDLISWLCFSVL

Cytochrome P450 1A2 = molecular target: T2, Cytochrome P450 1A2 (Homo sapiens, UniProt P05177);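 further: PubChem cytochrome P450 panel assay, CYP1A2 panel member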
T2 sequence (P05177 whole entry): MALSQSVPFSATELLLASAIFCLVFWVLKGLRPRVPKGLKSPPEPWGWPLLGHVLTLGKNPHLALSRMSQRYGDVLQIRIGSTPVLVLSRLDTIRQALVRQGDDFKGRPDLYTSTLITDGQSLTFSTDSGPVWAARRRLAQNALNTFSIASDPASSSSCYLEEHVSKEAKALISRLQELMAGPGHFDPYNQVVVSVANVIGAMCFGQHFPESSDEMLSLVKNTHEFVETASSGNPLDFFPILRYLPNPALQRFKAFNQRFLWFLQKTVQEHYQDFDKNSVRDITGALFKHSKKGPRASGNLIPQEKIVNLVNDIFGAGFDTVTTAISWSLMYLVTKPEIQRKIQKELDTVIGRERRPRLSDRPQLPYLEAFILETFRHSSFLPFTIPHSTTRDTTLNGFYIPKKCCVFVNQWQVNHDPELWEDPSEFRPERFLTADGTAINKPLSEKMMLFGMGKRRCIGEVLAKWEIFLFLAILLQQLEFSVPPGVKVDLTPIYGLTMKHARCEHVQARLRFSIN

[9] = P. falciparum late gametocyte killing, dose response, luminescence (AID 1117278); type: functional, cell-based;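 further: gametocytes exposed to compound for 24 hours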
[10] = Jurkat T cell cytotoxicity, dose response, cytotoxicity control for P. falciparum gametocyte viability project, luminescence (AID 1117277); type: functional, cell-based;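 further: potency reflects loss of cellular ATP meaning fewer viable cells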
[11] = Luminescence Cell-Based Dose Confirmation HTS to Identify Activators of 5'UTR Stem-Loop Driven Alpha-Synuclein mRNA Translation in H4 Neuroglioblastoma Cells. [Related pubchem assays: 1829 (Project Summary), 1814 (Primary HTS)]; type: functional
[12] = Luminescence Cell-Based Dose Response HTS to Identify Activators of Luciferase Translation or Activity in H4 […] Cells. [Related pubchem assays: 1829 (Project Summary), 1814 (Primary HTS)]; type: functional
H4 = assay: Luminescence Cell-Based Dose Response HTS to Identify Activators of 5'UTR Stem-Loop Driven Prion Protein mRNA Translation in H4 Neuroglioblastoma Cells. [Related pubchem assays: 1829 (Project Summary), 1814 (Primary HTS)]; type: functional; conditions: Homo sapiens
Protein Tat = Protein Tat (Human immunodeficiency virus type 1 group M subtype B (isolate HXB2)(HIV-1), UniProt P04608); type: functional;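 further: tat binding to TAR RNA read out by fluorescence polarization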
Sequence of Protein Tat (P04608 whole entry): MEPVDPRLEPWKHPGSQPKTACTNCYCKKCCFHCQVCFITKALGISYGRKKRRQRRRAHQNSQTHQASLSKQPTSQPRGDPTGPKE

Question: With CCOC(=O)C1=C(c2ccccc2)N=c2s/c(=C\c3cc(OC)c(OC)c(OC)c3)c(=O)n2C1c1cccs1 (stereo unspecified) as the compound, how does the EC50 [1] read?
Answer: 1.29 µM (active)

Question: What about the EC50 [2] of the same compound?
Answer: > 60 µM (not active)

Question: And the IC50 (Ephrin type-A receptor 4)?
Answer: 1.49 µM (active)

Question: And the AC50 (Cytochrome P450 2C19)?
Answer: 0.631 µM (inconclusive)

Question: What about the AC50 (Cytochrome P450 3A4) of the same compound?
Answer: 7.08 µM (inconclusive)

Question: And the AC50 (Cytochrome P450 2C9)?
Answer: 1.26 µM (inconclusive)

Question: For CCOc1ccc(-c2cc(C)[n+](CCN(CC)CC)c(-c3ccc(OCC)cc3)c2)cc1.[O-][Cl+3]([O-])([O-])[O-], which EC50 [3] is on record?
Answer: 98.5 µM (active)

Question: What about the EC50 [4] of the same compound?
Answer: 10.2 µM (active)

Question: What about the EC50 [5] of the same compound?
Answer: 14.6 µM (active)

Question: What about the EC50 [6] of the same compound?
Answer: 8.8 µM (active)

Question: What about the EC50 [7] of the same compound?
Answer: 0.258 µM (active)

Question: And the EC50 [1]?
Answer: < 0.1 µM (active)

Question: What about the EC50 [2] of the same compound?
Answer: > 60 µM (not active)

Question: What about the EC50 (cells) of the same compound?
Answer: 0.089 µM (active)

Question: Which IC50 (Estrogen receptor) does the source give for COc1cccc(/C=C2\N=C(c3c(-c4ccccc4)noc3C)OC2=O)c1OC here?
Answer: > 50 µM (not active)

Question: Which IC50 [8] does the source give for Cc1cccc(OCc2nnc(S)n2C2CCCCC2)c1 here?
Answer: 15 µM (not active)

Question: For CN(C)CCCNc1ccc(-c2nn(C)c(=O)c3ccccc23)cc1[N+](=O)[O-], which EC50 [1] is on record?
Answer: < 0.1 µM (active)

Question: And the EC50 [2]?
Answer: > 60 µM (not active)

Question: What about the EC50 (cells) of the same compound?
Answer: 0.135 µM (active)

Question: With Cc1cc(C)n(CC(O)COc2ccccc2)n1 (stereo unspecified) as the compound, how does the IC50 (Estrogen receptor) read?
Answer: > 50 µM (not active)

Question: And the AC50 (Cytochrome P450 1A2)?
Answer: 15.8 µM (inconclusive)

Question: What about the AC50 (Cytochrome P450 3A4) of the same compound?
Answer: 15.8 µM (inconclusive)

Question: What about the AC50 (Cytochrome P450 2C9) of the same compound?
Answer: 0.0355 µM (inconclusive)

Question: For CCN(CC)S(=O)(=O)c1ccc(Cl)c(NC(=O)COC(=O)c2cccn2C)c1, which IC50 [9] is on record?
Answer: > 109 µM (inactive)

Question: And the IC50 [10]?
Answer: > 83.3 µM (inactive)

Question: Which results are given for Cc1ccc2nc3c(cc2c1)CC1(C(=O)N(C)C(=O)N(C)C1=O)C1CCCCN31 (stereo unspecified)?
Answer: EC50 [11]: 35.6 µM (active); EC50 [12]: 73.9 µM (active); EC50 (H4): 12 µM (active); IC50 (Protein Tat): > 100 µM (active)

Question: With O=C(NCCCN1CCC(Cc2ccccc2)CC1)C1CCN(S(=O)(=O)N2CCC3(CC2)OCCO3)CC1 as the compound, how does the IC50 [9] read?
Answer: > 109 µM (inactive)

Question: What about the IC50 [10] of the same compound?
Answer: > 83.3 µM (inactive)
